Data reported in ChEMBL document CHEMBL1156598 (J Med Chem, 2008).

Legend:
[1] = biological target: Cytochrome P450 3A4 (Homo sapiens, UniProt P08684); assay: Inhibition of recombinant CYP3A4 expressed in baculovirus-infected insect microsomes; assay type: ADME, Microsome
[2] = biological target: T1, Steroid 17-alpha-hydroxylase/17,20 lyase (Homo sapiens, UniProt P05093); assay: Inhibition of human recombinant CYP17 expressed in Escherichia coli coexpressing NADPH-P450 reductase
T1 sequence (P05093 whole entry): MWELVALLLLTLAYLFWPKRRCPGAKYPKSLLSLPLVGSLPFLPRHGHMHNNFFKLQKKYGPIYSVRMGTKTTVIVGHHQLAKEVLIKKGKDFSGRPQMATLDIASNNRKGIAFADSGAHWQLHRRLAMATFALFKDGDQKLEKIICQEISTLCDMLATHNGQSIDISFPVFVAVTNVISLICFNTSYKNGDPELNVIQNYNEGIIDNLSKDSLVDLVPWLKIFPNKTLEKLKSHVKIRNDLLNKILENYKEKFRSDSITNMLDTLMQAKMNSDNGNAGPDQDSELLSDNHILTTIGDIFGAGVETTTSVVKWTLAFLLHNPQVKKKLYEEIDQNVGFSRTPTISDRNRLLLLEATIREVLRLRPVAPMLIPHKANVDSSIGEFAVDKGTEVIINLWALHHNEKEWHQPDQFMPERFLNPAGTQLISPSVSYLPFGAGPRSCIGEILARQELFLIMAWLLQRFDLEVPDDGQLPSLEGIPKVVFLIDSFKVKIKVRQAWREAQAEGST

[3] = biological target: T2, Cytochrome P450 11B2, mitochondrial (Homo sapiens, UniProt P19099); assay: Inhibition of human CYP11B2 expressed in hamster V79MZh11B2 cells; assay type: cell-based
T2 sequence (P19099 whole entry): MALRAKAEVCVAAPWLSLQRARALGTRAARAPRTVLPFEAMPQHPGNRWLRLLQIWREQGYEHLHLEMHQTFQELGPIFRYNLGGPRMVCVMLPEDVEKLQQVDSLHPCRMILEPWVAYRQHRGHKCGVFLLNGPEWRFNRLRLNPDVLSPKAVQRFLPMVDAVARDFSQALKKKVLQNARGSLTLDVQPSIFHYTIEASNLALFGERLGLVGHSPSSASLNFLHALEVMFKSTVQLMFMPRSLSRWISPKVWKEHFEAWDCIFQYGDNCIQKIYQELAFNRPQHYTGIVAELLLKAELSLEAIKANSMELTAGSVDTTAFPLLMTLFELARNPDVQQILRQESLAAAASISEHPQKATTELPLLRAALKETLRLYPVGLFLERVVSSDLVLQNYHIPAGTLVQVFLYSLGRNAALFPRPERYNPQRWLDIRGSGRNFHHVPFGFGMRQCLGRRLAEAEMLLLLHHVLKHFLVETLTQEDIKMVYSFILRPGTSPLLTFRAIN

[4] = biological target: T3, Cytochrome P450 11B1, mitochondrial (Homo sapiens, UniProt P15538); assay: Inhibition of human CYP11B1 expressed in hamster V79MZh11B1 cells; assay type: cell-based
T3 sequence (P15538 whole entry): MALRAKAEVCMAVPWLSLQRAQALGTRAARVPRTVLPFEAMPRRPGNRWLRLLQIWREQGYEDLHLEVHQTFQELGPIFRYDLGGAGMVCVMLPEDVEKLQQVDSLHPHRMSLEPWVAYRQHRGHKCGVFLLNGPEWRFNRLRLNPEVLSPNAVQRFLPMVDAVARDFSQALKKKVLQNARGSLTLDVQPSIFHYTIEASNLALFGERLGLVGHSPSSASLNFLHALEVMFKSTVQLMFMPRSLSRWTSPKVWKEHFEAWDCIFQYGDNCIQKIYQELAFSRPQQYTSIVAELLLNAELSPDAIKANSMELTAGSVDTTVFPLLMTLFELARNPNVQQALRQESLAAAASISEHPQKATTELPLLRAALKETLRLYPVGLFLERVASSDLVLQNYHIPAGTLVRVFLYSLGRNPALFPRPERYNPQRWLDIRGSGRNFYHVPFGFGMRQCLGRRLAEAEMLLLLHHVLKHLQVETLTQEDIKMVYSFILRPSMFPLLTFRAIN

Cytochrome P450 3A4, sequence (P08684 whole entry): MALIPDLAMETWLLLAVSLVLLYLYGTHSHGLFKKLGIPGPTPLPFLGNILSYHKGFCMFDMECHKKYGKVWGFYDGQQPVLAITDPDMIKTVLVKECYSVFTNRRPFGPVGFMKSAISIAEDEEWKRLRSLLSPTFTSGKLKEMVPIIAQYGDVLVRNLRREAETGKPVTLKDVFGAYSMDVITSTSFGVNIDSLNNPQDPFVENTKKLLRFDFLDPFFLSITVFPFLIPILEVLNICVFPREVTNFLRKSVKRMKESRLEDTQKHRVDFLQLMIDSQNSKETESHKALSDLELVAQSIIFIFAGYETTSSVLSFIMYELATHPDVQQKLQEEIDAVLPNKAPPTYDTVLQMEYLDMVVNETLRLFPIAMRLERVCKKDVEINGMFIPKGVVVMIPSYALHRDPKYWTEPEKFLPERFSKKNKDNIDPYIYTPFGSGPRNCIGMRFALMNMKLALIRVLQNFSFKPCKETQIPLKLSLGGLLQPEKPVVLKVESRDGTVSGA

Compound | IC50 [1] [nM] | IC50 [2] [nM] | IC50 [3] [nM] | IC50 [4] [nM]
Fc1ccc(-c2ccc3c(c2)CCC3c2cccnc2)cc1 (stereo unspecified) | 1700 | > 20000 | – | –
Oc1ccc(-c2ccc3c(c2)CCC=C3c2ccncc2)cc1F | 2110 | 188 | 991 | 2750
COc1ccc(-c2ccc3c(c2)CCC3(O)c2ccncc2)cc1 (stereo unspecified) | 3290 | – | – | –
Fc1ccc(-c2ccc3c(c2)CC=C3c2cccnc2)cc1 | 6950 | 2350 | – | –
Fc1ccc(-c2ccc3c(c2)CCC=C3c2ccncc2)cc1F | 3640 | > 5000 | 311 | > 20000
Oc1ccc(-c2ccc3c(c2)CCC=C3c2ccncc2)cc1O | 357 | – | – | –
COc1ccc(-c2ccc3c(c2)CCC3(O)c2ccncc2)cc1F (stereo unspecified) | 3360 | > 10000 | 436 | 291
Oc1ccc(-c2ccc3c(c2)CCCC3c2ccncc2)cc1O (stereo unspecified) | 632 | – | – | –
Fc1ccc(-c2ccc3c(c2)CCCC3c2ccncc2)cc1 (stereo unspecified) | 2170 | 163 | 518 | > 5000
Oc1ccc(-c2ccc3c(c2)CCCC3c2ccncc2)cc1F (stereo unspecified) | 3390 | 64 | 587 | 1370
OC1(c2ccncc2)CCc2cc(-c3ccc(F)cc3)ccc21 (stereo unspecified) | 3230 | – | – | –
OC1(c2ccncc2)CCCc2cc(-c3ccc(F)c(F)c3)ccc21 (stereo unspecified) | 13800 | – | – | –
COc1ccc(-c2ccc3c(c2)CCCC3(O)c2ccncc2)cc1F (stereo unspecified) | 15200 | > 5000 | 945 | 686

Continued, values first:

IC50 [1] [nM] | IC50 [2] [nM] | IC50 [3] [nM] | IC50 [4] [nM] | Compound
4200 | – | – | – | Fc1ccc(-c2ccc3c(c2)CCC=C3c2ccncc2)cc1
– | – | 1750 | – | C[C@]12CC[C@H](O)CC1=CC[C@@H]1[C@@H]2CC[C@]2(C)C(c3cccnc3)=CC[C@@H]12 [ABIRATERONE]
159 | – | – | – | Fc1ccc(-c2ccc3c(c2)CC=C3c2ccncc2)cc1
2390 | – | – | – | COc1ccc(-c2ccc3c(c2)CC=C3c2ccncc2)cc1
1090 | 233 | 543 | 1080 | Fc1ccc(-c2ccc3c(c2)CCC3c2ccncc2)cc1 (stereo unspecified)
> 20000 | – | – | – | OC1(c2cccnc2)CCc2cc(-c3ccc(F)cc3)ccc21 (stereo unspecified)
8760 | 587 | 840 | 1160 | OC1(c2ccncc2)CCCc2cc(-c3ccc(F)cc3)ccc21 (stereo unspecified)
